The record followed here is ChEMBL document CHEMBL3400074, “Development of 2-amino-5-phenylthiophene-3-carboxamide derivatives as novel inhibitors of Mycobacterium tuberculosis DNA GyrB domain” (Bioorg Med Chem, 2015).

The IC50 is the concentration that inhibits the measured activity by half. Usually ΔTm stands for the change in melting temperature against a reference sample.

The target in data set [1] is DNA gyrase subunit B (Mycobacterium smegmatis, UniProt P0C559). Description: Inhibition of Mycobacterium smegmatis DNA GyrB domain assessed as inhibition of inorganic phosphate release after 100 mins at room temperature by ATPase assay. More on the design: species or system Mycolicibacterium smegmatis.
The nature of data set [2]: Inhibition of Mycobacterium tuberculosis DNA GyrA/B heterotetramer assessed as inhibition of pBR322 supercoiling after 30 mins by gel electrophoresis.
Data set [3] can be described thus: Cytotoxicity against mouse RAW264.7 cells at 100 uM after 48 hrs by MTT assay. In kind it is cell-based. The following applies: read-out: INH. (Tetrazolium assays rely on reduction of a dye to a coloured formazan, in cell work by metabolically active cells.)
Data set [4] deals with DNA gyrase subunit B (Mycobacterium smegmatis) (UniProt P0C559). Description: Binding affinity to Mycobacterium smegmatis DNA GyrB domain assessed as change in melting temperature by differential scanning fluorimetry. The following applies: Mycolicibacterium smegmatis. Background: DSF heats the sample and reads unfolding from a dye or from intrinsic fluorescence.
DNA gyrase subunit B (Mycobacterium smegmatis), sequence (P0C559 2-675 limits assumed): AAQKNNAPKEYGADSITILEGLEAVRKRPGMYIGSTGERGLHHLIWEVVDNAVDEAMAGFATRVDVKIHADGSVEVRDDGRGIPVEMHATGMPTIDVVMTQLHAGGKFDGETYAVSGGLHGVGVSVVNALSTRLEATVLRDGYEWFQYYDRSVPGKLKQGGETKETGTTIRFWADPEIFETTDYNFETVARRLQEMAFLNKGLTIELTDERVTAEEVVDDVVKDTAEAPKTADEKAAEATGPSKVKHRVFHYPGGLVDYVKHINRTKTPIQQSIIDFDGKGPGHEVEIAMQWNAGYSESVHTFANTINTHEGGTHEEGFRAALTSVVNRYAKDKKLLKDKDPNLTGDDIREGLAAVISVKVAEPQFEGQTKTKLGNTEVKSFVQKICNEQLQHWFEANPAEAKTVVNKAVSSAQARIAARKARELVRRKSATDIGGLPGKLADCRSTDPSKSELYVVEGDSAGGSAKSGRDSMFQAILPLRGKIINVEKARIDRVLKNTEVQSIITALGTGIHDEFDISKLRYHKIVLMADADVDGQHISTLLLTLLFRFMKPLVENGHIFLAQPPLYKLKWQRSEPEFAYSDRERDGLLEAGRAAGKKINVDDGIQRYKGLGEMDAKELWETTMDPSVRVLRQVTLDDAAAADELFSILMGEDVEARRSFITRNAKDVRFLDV

DNA gyrase subunit B, sequence (P0C559 whole entry, the tested form may be a part): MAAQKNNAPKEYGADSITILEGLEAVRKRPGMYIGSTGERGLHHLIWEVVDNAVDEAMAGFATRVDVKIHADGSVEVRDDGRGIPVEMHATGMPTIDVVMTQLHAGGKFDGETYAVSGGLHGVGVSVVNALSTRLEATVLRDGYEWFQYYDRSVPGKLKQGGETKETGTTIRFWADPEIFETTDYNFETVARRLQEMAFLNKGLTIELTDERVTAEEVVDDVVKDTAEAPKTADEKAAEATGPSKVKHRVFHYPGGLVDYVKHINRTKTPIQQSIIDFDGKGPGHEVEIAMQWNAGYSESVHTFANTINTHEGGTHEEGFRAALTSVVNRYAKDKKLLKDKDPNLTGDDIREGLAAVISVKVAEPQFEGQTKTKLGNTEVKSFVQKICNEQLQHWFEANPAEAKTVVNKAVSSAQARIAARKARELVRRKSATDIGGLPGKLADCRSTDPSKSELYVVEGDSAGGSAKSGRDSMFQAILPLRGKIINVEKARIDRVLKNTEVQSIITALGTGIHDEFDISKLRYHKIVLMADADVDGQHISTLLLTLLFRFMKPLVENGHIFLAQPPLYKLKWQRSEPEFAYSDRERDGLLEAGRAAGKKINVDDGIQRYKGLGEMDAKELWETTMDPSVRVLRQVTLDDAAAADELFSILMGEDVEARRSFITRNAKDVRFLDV

`NC(=O)c1cc(-c2ccccc2)sc1NC(=O)c1cccs1`: the IC50 in data set [1] worked out at 1.5 µM; in data set [2], 1.16 µM.

As to `CC(C)NC(=S)Nc1sc(-c2ccccc2)cc1C(N)=O`, the cytotoxicity at 48 h, 100 µM in data set [3] is 35.5%. In addition, the values for the IC50 in data set [1] and in data set [2] were 16.2 µM and 9.25 µM, respectively.

On to `CC(=O)Nc1sc(-c2ccccc2)cc1C(N)=O`, for which the cytotoxicity at 48 h, 100 µM in data set [3] stood at 37.5%. The IC50 in data set [1] is 19.1 µM; in data set [2], 11.8 µM.

For the compound `NC(=O)c1cc(-c2ccccc2)sc1NC(=O)NCc1ccccc1`, the cytotoxicity at 48 h, 100 µM in data set [3] amounted to 33%. Besides, the IC50 in data set [1] came to 10.8 µM; in data set [2] it was 8.89 µM.

As for `NC(=O)c1cc(-c2ccccc2)sc1NC(=O)Nc1ccc(F)cc1`, the cytotoxicity at 48 h, 100 µM in data set [3] was determined as 33.7%. Besides, the figures for the IC50 in data set [1] and in data set [2] were 11.5 µM and 9.88 µM, respectively.

Consider `NC(=O)c1cc(-c2ccccc2)sc1NC(=O)C1CCCCC1`, for which, in data set [3], the cytotoxicity at 48 h, 100 µM was determined as 39%. The IC50 in data set [1] came out at 10.2 µM; in data set [2] it was 9.83 µM.

`NC(=O)c1cc(-c2ccccc2)sc1NC(=O)Nc1ccc(Br)cc1`: the cytotoxicity at 48 h, 100 µM in data set [3] was found to be 37.6%. For the same compound, the values for the IC50 in data set [1] and in data set [2] were 12.2 µM and over 25 µM, respectively.

As for `NC(=O)c1cc(-c2ccccc2)sc1NC(=O)c1ccc(Oc2ccccc2)cc1`, in data set [3], the cytotoxicity at 48 h, 100 µM worked out at 35.8%. For the same compound, the IC50 in data set [1] is 17.3 µM; in data set [2], 8.85 µM.

In the case of `NC(=O)c1cc(-c2ccccc2)sc1NC(=O)c1cc2ccccc2[nH]1`, the cytotoxicity at 48 h, 100 µM in data set [3] is 36.2%. The IC50 in data set [1] was determined as 22 µM; in data set [2], 18.2 µM.

For `NC(=O)c1cc(-c2ccccc2)sc1NC(=O)Nc1ccc(Cl)cc1`, the cytotoxicity at 48 h, 100 µM in data set [3] turned out to be 38.2%. The IC50 was determined as 3.14 µM in data set [1] and 2.97 µM in data set [2].

Turning to `CCCC(=O)Nc1sc(-c2ccccc2)cc1C(N)=O`, the cytotoxicity at 48 h, 100 µM in data set [3] came to 39.8%. Besides, the results for the IC50 in data set [1] and in data set [2] were 3.57 µM and 3.14 µM, respectively.

In the case of `NC(=O)c1cc(-c2ccccc2)sc1NC(=S)Nc1ccc(Cl)cc1`, the cytotoxicity at 48 h, 100 µM in data set [3] was 36.1%. Besides, the IC50 was 71.4 µM in data set [1] and over 25 µM in data set [2].

`NC(=O)c1cc(-c2ccccc2)sc1NC(=O)c1ccccc1`: the cytotoxicity at 48 h, 100 µM in data set [3] was determined as 37.6%. Also, the IC50 was 0.86 µM in data set [1] and 0.76 µM in data set [2]. Moreover, in data set [4], the shift in melting temperature (ΔTm) was 2.5 °C.

For the compound `NC(=O)c1cc(-c2ccccc2)sc1NC(=O)c1ccc([N+](=O)[O-])cc1`, in data set [3], the cytotoxicity at 48 h, 100 µM was found to be 35.9%. In addition, the figures for the IC50 in data set [1] and in data set [2] were 8.91 µM and 6.77 µM, respectively.

Consider `NC(=O)c1cc(-c2ccccc2)sc1NC(=S)Nc1ccc([N+](=O)[O-])cc1`, for which the cytotoxicity at 48 h, 100 µM in data set [3] is 40.3%. The values for the IC50 in data set [1] and in data set [2] were 32.5 µM and over 25 µM, respectively.

Consider `CC(C)NC(=O)Nc1sc(-c2ccccc2)cc1C(N)=O`, for which, in data set [3], the cytotoxicity at 48 h, 100 µM is 36.1%. The IC50 turned out to be 6.47 µM in data set [1] and 6.17 µM in data set [2].

As to `NC(=O)c1cc(-c2ccccc2)sc1NC(=O)c1ccc(Cl)cc1`, the cytotoxicity at 48 h, 100 µM in data set [3] was 38.5%. The IC50 in data set [1] was 6.69 µM; in data set [2], 5.82 µM.

Turning to `NC(=O)c1cc(-c2ccccc2)sc1NC(=O)Nc1ccccc1`, the cytotoxicity at 48 h, 100 µM in data set [3] is 37.3%. For the same compound, the IC50 in data set [1] is 1.83 µM; in data set [2], 1.32 µM.

`CCC(=O)Nc1sc(-c2ccccc2)cc1C(N)=O`: the cytotoxicity at 48 h, 100 µM in data set [3] came to 39.4%. Moreover, the values for the IC50 in data set [1] and in data set [2] were 11.8 µM and 5.62 µM, respectively.

On to `NC(=O)c1cc(-c2ccccc2)sc1NC(=S)Nc1ccc(F)cc1`, for which, in data set [3], the cytotoxicity at 48 h, 100 µM was found to be 32.1%. The figures for the IC50 in data set [1] and in data set [2] were 48.9 µM and over 25 µM, respectively.

`Cc1ccc(NC(=S)Nc2sc(-c3ccccc3)cc2C(N)=O)cc1`: in data set [3], the cytotoxicity at 48 h, 100 µM worked out at 34.8%. Also, the IC50 in data set [1] stood at 2.46 µM; in data set [2], 2.97 µM.

With `Cc1ccc(NC(=O)Nc2sc(-c3ccccc3)cc2C(N)=O)cc1`, the cytotoxicity at 48 h, 100 µM in data set [3] was 37.6%. Also, the IC50 in data set [1] was 24 µM; in data set [2], over 25 µM.

With `NC(=O)c1cc(-c2ccccc2)sc1NC(=S)Nc1ccccc1`, the cytotoxicity at 48 h, 100 µM in data set [3] was determined as 32.8%. Besides, the IC50 is 70.3 µM in data set [1] and over 25 µM in data set [2].

Regarding `NC(=O)c1cc(-c2ccccc2)sc1NC(=O)C1CCCC1`, the cytotoxicity at 48 h, 100 µM in data set [3] was 39.7%. In addition, the values for the IC50 in data set [1] and in data set [2] were 42.2 µM and over 25 µM, respectively.

For `NC(=O)c1cc(-c2ccccc2)sc1NC(=O)c1cnccn1`, the cytotoxicity at 48 h, 100 µM in data set [3] was 34.3%. Also, the values for the IC50 in data set [1] and in data set [2] were 18.4 µM and over 25 µM, respectively.

As for `NC(=O)c1cc(-c2ccccc2)sc1NC(=S)NCc1ccccc1`, in data set [3], the cytotoxicity at 48 h, 100 µM is 36.1%. For the same compound, the IC50 was 28.3 µM in data set [1] and 17.8 µM in data set [2].

In the case of `NC(=O)c1cc(-c2ccccc2)sc1NC(=S)Nc1ccc(Br)cc1`, in data set [3], the cytotoxicity at 48 h, 100 µM was 35.6%. Further, the IC50 in data set [1] is 10.9 µM; in data set [2] it was 9.63 µM.

For the compound `CO[C@@H]1[C@@H](OC(N)=O)[C@@H](O)[C@H](Oc2ccc3c(O)c(NC(=O)c4ccc(O)c(CC=C(C)C)c4)c(=O)oc3c2C)OC1(C)C` [NOVOBIOCIN], the cytotoxicity at 48 h, 100 µM in data set [3] was determined as 81.7%.

As to `NC(=O)c1cc(-c2ccccc2)sc1NC(=O)c1cccc2ccccc12`, the cytotoxicity at 48 h, 100 µM in data set [3] came to 36.8%. Besides, the values for the IC50 in data set [1] and in data set [2] were 28.6 µM and over 25 µM, respectively.

In the case of `NC(=O)c1cc(-c2ccccc2)sc1NC(=O)Nc1ccc([N+](=O)[O-])cc1`, the cytotoxicity at 48 h, 100 µM in data set [3] is 37.3%. Besides, the IC50 was 12.8 µM in data set [1] and 10.9 µM in data set [2].
